{"source": "paper PMC12314051", "about": "“Design, antiproliferative potency, and in silico studies of novel 5-methylfuran-3-yl)thio)-3-phenylquinazolin-4(3H)-one based derivatives as potential EGFR inhibitors” (Scientific Reports, 2025)", "key": {"Bcl-2": {"system": "Bcl-2", "experiment": "Bcl-2 level in MCF-7 cells", "assay_type": "cell-based, human", "settings": "MCF-7, 3.91 μM, 24 h", "source_text": "(§1) The extrinsic pathway, which is controlled by the death receptor, and the intrinsic pathway, which is handled by the mitochondria, are the two primary mechanisms that govern the cell during apoptosis. The two proteins Bcl-2 and Bax can alter this planned process due to their respective roles as […] (inducer), and the balance between them adjusts cell death. A further vital component that either causes cell death or prevents cell proliferation is the tumor suppressor gene, p53. […] Furthermore, compound 6b increased the amount of p53 protein in MCF-7 treated cells by 7.2 times, while control cells only had 119.65 Pg/mL (Table 3).\n(§2) For the promising quinazolinone-furan-benzo[b][1,4]diazepine 6b, the Bax, Bcl-2, and p53 levels in MCF-7 cells were elucidated using the previously disclosed method.\nThe magnitudes of the apoptotic proteins; BAX and Bcl-2 were evaluated using BIORAD iScript TM One-Step RT-PCR kit with SYBR®Green (BIO-RAD Laboratories, Hercules, CA, US). The method of the applied kit was conducted according to the manufacturer’s protocol and previously reported method. First, mRNA isolation is done using RNeasy extraction kit, up to 1 × 10^7 cells, depending on the cell line. Then Cells were exposed to RNeasy Lysis Buffer (RLT buffer) and homogenized, while ethanol was then supplemented to the mixture to allow selective binding of RNA to the RNeasy membrane. […]"}, "MCF-7 cells [1]": {"system": "MCF-7 cells", "experiment": "Apoptosis detection, annexin V-FITC/PI flow cytometry", "assay_type": "cell-based, human", "description": "(§3) The treated cells were subsequently analyzed using flow cytometry and annexin-V labeling (Fig. 4, 5, 6).\n(§4) Using flow cytometry, the investigation of cell cycle analysis and apoptosis was described[79],[81]. After applying quinazolinone-furan-benzo[b][1,4]diazepine 6b to MCF-7 cells for 24 h, the cells were incubated at 37 °C. The supplemental file contained more information.\n(§5) Cell cycle analysis and apoptosis study were carried out using ab139418–Propidium Iodide Flow Cytometry Kit for Cell Cycle Analysis. MCF-7 cells were seeded at 8×10^4 and incubated at 37°C in 5% CO2 overnight. After treatment with the tested compound 10 for 24 h, cell pellets were collected and centrifuged (300 g, 5 min). For cell cycle analysis, cell pellets were fixed with 70% ethanol on ice for 15 min and collected again. The pellets were incubated with propidium iodide (PI) staining solution at room temperature for 1 h and analyzed by a Gallios flow cytometer (Beckman Coulter, Brea, CA, USA). Apoptosis detection was carried out by FITC AnnexinV/PI commercial kit (Becton Dickenson, Franklin Lakes, NJ, USA) following the manufacturer protocol. The samples were analyzed by fluorescence-activated cell sorting (FACS) with a Gallios flow cytometer (Beckman Coulter, Brea, CA, USA) within 1 h after staining. Data were analyzed using Kaluza v 1.2 (Beckman Coulter)."}, "[2]": {"system": "HepG-2, HCT-116 and MCF-7 cell lines", "experiment": "MTT cytotoxicity, all screened cancer cell lines together (SAR summary)", "assay_type": "cell-based, human", "settings": "HepG-2, HCT-116 and MCF-7 cell lines", "description": "[…]. In addition, replacement of acetyl group in 2 with pyrazoline moiety with free N-1 in 7 or bound to thiazole in 9, yielded weak activity.\n(§6) Following the published protocol[75]–[77], the cytotoxic effects of the newly synthesized quinazolinones 1–10 were assessed in vitro using the MTT test method on human liver HepG-2, breast MCF-7, colorectal HCT-116 cancer cell lines, and normal diploid cell line WI-38. There were further details in the supplemetary file.\n(§7) The cell lines were obtained from Karolinska Center, Department of Oncology and Pathology, Karolinska Institute and Hospital, Stockholm, Sweden, as follows: human liver HepG-2, breast MCF-7, and colorectal HCT-116 cancer cell lines and human diploid cell line WI-38. Exponentially, cells were placed in 10^4 cells/ well for 24 h, and then fresh medium containing different concentrations of the tested sample. two-fold serial dilution of the tested sample was added using a multichannel pipette. Moreover, all cells were cultivated at 37 °C, 5% CO2 and 95% humidity. Also, incubation of control cells occurred at 37 °C. However, after incubation for 24 h different concentrations of the sample (100, 50, 25, 12.5, 6.25, 3.125, and 1.56 µM) were added, and continued the incubation for 48 h, then, add the crystal violet solution of 1% to each well for 0.5 h to examine viable cells. Rinse the wells using water until no stain. After that, add 30% glacial acetic acid to all wells with shaking plates on a Microplate reader (TECAN, Inc.) to measure the absorbance, using a test wavelength of 490 nm. Besides, compare the treated samples with the control cell. The cytotoxicity was estimated by IC50 in (μM), the concentration that inhibits 50% of growth of cancer cell."}, "p53": {"system": "p53", "experiment": "p53 level in MCF-7 cells (ELISA)", "assay_type": "cell-based, human", "settings": "MCF-7, 3.91 μM, 24 h", "source_text": "as §1, §2\nHuman p53 present in MCF-7 cells was determined; using Human p53 ELISA-Kit (CS0070 Sigma) read using spectrophotometer at 450 nm against untreated control cells (negative control) applying the standard protocols of the manufacturers. The samples or standard having human p53 bind to antibodies adsorbed to the microwells. Addition of biotin-conjugated was followed by incubation and addition of dispense of unbound biotin-conjugated streptavidin HRP. Then, the reaction was terminated by adding acid, and the absorbance was measured at 450 nm."}, "EGFR": {"molecular_target": "T1, EGFR (Homo sapiens, UniProt P00533)", "T1 construct": "purchased Abcam", "T1 sequence (P00533 25-1210)": "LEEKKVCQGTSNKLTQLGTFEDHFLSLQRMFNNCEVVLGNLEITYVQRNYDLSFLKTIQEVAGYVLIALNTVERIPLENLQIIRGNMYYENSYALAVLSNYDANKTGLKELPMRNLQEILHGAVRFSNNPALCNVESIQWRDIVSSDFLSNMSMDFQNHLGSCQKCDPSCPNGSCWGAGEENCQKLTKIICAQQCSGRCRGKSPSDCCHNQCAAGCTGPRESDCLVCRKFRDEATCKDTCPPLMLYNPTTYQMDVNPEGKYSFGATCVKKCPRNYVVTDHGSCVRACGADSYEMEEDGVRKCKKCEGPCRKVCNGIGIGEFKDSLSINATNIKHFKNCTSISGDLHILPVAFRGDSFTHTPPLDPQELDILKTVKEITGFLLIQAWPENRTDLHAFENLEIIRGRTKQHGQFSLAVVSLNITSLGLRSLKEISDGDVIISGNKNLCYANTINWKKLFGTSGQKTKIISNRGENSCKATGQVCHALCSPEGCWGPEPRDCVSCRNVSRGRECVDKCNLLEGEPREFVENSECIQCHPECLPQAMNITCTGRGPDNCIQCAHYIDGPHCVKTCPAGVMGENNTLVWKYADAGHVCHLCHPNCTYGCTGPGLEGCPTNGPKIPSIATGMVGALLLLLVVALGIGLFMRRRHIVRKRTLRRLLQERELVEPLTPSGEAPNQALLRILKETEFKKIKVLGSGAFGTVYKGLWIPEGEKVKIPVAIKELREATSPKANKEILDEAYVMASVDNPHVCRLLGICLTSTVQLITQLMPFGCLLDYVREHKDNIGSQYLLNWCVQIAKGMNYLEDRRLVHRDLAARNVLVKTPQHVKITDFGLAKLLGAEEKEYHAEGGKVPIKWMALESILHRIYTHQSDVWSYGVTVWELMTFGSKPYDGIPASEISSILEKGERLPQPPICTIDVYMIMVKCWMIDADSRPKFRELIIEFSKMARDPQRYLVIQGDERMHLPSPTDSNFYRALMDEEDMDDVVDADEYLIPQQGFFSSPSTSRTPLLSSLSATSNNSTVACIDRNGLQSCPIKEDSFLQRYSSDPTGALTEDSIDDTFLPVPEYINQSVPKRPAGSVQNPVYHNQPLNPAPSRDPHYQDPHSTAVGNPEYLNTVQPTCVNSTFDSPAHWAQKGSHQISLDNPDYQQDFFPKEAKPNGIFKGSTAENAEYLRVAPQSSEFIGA", "experiment": "In vitro EGFR inhibition assay", "assay_type": "biochemical"}, "Bax": {"system": "Bax", "experiment": "Bax level in MCF-7 cells", "assay_type": "cell-based, human", "settings": "MCF-7, 3.91 μM, 24 h", "source_text": "as §1, §2\nThe magnitudes of the apoptotic proteins; BAX and Bcl-2 were evaluated using BIORAD iScript TM One-Step RT-PCR kit with SYBR®Green (BIO-RAD Laboratories, Hercules, CA, US). The method of the applied kit was conducted according to the manufacturer’s protocol and previously reported method. First, mRNA isolation is done using RNeasy extraction kit, up to 1 × 10^7 cells, depending on the cell line. Then Cells were exposed to RNeasy Lysis Buffer (RLT buffer) and homogenized, while ethanol was then supplemented to the mixture to allow selective binding of RNA to the RNeasy membrane. Afterwards, the sample was loaded to the RNeasy mini spin column where total RNA was bound to the membrane while contaminants competently passed through, and high-quality RNA was eluted in RNase-free water. Then, the reaction mixture was incubated in a real-time thermal detection system (Rotorgene) as follows: cDNA synthesis: 10 min at 50 ◦C, iScript reverse transcriptase inactivation: 5 min at 95 ◦C, polymerase chain reaction (PCR) cycling and detection (30–45 cycles): 10s at 95 ^◦C and 30 s at 55 ^◦C to 60 ^◦C (data collection step) and melt curve analysis: 1 min at 95 ◦C and 1 min at 55 ^◦C and 10s at 55 ^◦C (80 cycles, increasing each by 0.5 ^◦C each cycle)."}, "MCF-7 cells [3]": {"system": "MCF-7 cells", "experiment": "MTT cytotoxicity assay, MCF-7", "assay_type": "cell-based", "settings": "Homo sapiens, MCF7; MCF-7, MTT assay; read-out: IC50 (mean ± SD)", "description": "as §6, §7"}, "HCT-116 cells": {"system": "HCT-116 cells", "experiment": "MTT cytotoxicity assay, HCT-116", "assay_type": "cell-based", "settings": "Homo sapiens; HCT-116, MTT assay; read-out: IC50 (mean ± SD)", "description": "as §6, §7"}, "WI-38 cells": {"system": "WI-38 cells", "experiment": "MTT cytotoxicity assay, normal WI-38", "assay_type": "cell-based", "settings": "Homo sapiens; normal WI-38, MTT assay; read-out: IC50 (mean ± SD)", "description": ". […]. Furthermore, the MTT assay was employed to examine the safety profiles of the cytotoxic activity against the normal human diploid cell line WI-38 (Table 1). […]. They could therefore be considered safe chemotherapeutic agents.\nas §6, §7"}, "VEGFR-2": {"molecular_target": "T2, VEGFR-2 (Homo sapiens, UniProt P35968)", "T2 construct": "purchased Ray Biotech", "T2 sequence (P35968 20-1356)": "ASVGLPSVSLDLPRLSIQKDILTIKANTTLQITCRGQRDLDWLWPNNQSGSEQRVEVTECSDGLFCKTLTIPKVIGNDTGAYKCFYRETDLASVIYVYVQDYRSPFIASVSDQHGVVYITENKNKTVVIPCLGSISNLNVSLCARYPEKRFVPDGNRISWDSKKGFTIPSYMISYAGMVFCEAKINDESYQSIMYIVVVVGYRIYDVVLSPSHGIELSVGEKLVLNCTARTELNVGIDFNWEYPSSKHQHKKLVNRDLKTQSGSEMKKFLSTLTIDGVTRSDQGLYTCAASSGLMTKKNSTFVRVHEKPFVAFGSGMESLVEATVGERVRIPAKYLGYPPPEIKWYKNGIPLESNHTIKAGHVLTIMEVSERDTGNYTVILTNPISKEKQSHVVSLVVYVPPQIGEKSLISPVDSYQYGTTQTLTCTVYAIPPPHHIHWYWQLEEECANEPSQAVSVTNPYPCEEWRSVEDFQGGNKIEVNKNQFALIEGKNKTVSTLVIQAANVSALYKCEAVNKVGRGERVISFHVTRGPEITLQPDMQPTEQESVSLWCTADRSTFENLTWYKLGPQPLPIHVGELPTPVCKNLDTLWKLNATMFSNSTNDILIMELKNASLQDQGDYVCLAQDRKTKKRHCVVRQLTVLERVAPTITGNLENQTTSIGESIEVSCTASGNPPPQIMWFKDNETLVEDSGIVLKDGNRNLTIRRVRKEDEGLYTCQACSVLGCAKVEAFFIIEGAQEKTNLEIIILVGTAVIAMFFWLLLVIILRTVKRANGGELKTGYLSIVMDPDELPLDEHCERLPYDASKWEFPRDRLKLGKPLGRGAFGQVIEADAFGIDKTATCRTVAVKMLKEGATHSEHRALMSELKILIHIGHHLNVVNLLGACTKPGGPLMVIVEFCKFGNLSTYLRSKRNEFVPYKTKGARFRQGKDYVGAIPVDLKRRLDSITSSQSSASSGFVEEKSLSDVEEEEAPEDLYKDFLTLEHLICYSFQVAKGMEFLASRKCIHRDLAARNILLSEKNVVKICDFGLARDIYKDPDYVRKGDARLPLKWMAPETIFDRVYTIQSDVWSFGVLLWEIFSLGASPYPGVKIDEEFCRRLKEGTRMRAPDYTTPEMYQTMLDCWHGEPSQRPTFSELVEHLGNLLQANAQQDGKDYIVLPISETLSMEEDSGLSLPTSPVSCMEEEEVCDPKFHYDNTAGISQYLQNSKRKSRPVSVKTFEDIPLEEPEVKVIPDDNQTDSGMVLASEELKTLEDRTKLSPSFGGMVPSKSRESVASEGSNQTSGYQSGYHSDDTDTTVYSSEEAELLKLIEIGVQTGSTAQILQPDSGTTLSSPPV", "experiment": "In vitro VEGFR-2 inhibition assay (ELISA kit)", "assay_type": "biochemical", "settings": "read-out: IC50 (mean ± SD)", "description": "Quinazolinone-based targets 1, 6b, 8a, and 10 were chosen for further evaluation of their in vitro inhibitory activity against EGFR and VEGFR-2 because of their exceptional cytotoxic outcomes, with the goal of clarifying their mode of action. […]. VEGFR-2 assay: the effect of the most promising cytotoxic compounds 1, 6b, 8a, and 10 was evaluated for their in vitro inhibitory activity against Human VEGFR-2 using ELISA kit according to manufacturer's instructions (Ray Biotech). This assay employs an antibody specific for human VEGFR-2 coated on a 96-well plate. Samples and standards were added to the wells and incubated over night at 4 °C with gentle shaking. The wells were washed and biotinylated antibody was added followed by incubation for one hour at room temperature. After washing away unbound biotinylated antibody, HRP conjugated streptavidin was pipetted to the wells and\nincubated at room temperature for 45 min. The wells were then washed; TMB substrate solution was added and incubated for 30 min. The color developed was in proportion to the amount of VEGFR-2 bound. The Stop Solution was added and the intensity of the color was measured at 450 nm. Percent inhibition was calculated by the comparison of compounds treated to control incubations. […]"}, "MCF-7 cells [4]": {"system": "MCF-7 cells", "experiment": "Cell cycle analysis by flow cytometry (PI)", "assay_type": "cell-based, human", "settings": "MCF-7, 3.91 μM, 24 h", "description": "as §3, §4, §5"}, "HepG-2 cells": {"system": "HepG-2 cells", "experiment": "MTT cytotoxicity assay, HepG-2", "assay_type": "cell-based", "settings": "Homo sapiens, HepG2; HepG-2, MTT assay; read-out: IC50 (mean ± SD)", "description": "as §6, §7"}}, "note": "Where “and” joins values, the source holds several entries; their conditions need not be identical. Identical values can stand only once."}
{"molecule": "Cc1occ(Sc2nc3ccccc3c(=O)n2-c2ccccc2)c1C1CC(c2ccco2)Nc2ccccc2N1", "note": "(centres unmarked) [Compound 6b, 2-((4-(4-(Furan-2-yl)-2,3,4,5-tetrahydro-1H-benzo[b][1,4]diazepin-2-yl)-5-methylfuran-3-yl)thio)-3-phenylquinazolin-4(3H)-one]", "values": [{"measurement": "Bcl-2", "setting": "Bcl-2", "result": "2.82 ng/mL and 2.82 ± 0.11 ng/mL"}, {"measurement": "Bcl-2 protein downregulated versus control", "setting": "Bcl-2", "result": 2.6, "unit": "times"}, {"measurement": "Apoptosis Early", "setting": "MCF-7 cells [1]; MCF-7, 3.91 μM, 24 h", "result": 8.92, "unit": "%"}, {"measurement": "Apoptosis Late", "setting": "MCF-7 cells [1]; MCF-7, 3.91 μM, 24 h", "result": 15.39, "unit": "%"}, {"measurement": "Apoptosis Total", "setting": "MCF-7 cells [1]; MCF-7, 3.91 μM, 24 h", "result": 29.76}, {"measurement": "Necrosis", "setting": "MCF-7 cells [1]; MCF-7, 3.91 μM, 24 h", "result": 5.45, "unit": "%"}, {"measurement": "apoptosis in MCF-7 cells as stated in abstract and conclusion", "setting": "MCF-7 cells [1]; MCF-7, flow cytometry", "result": 35.29, "unit": "%"}, {"measurement": "cytotoxic activity in words (SAR study)", "setting": "[2]", "result": "Excellent activity"}, {"measurement": "P53", "setting": "p53", "result": "860.55 ± 2.47", "unit": "pg/mL"}, {"measurement": "increase of p53 protein versus control", "setting": "p53", "result": 7.2, "unit": "times"}, {"measurement": "selectivity EGFR over VEGFR-2", "setting": "EGFR; EGFR versus VEGFR-2", "result": "substantially more selective for EGFR than VEGFR-2"}, {"measurement": "IC50", "setting": "EGFR; EGFR, read-out: IC50 (mean ± SD)", "result": "190 ± 30", "unit": "nM"}, {"measurement": "Bax", "setting": "Bax", "result": "241.60 pg/mL and 241.6 ± 1.33 pg/mL"}, {"measurement": "Bax/Bcl-2", "setting": "Bax", "result": 85.67}, {"measurement": "rise in Bax levels versus untreated control", "setting": "Bax", "result": 6.3, "unit": "fold"}, {"measurement": "IC50", "setting": "MCF-7 cells [3]", "result": "3.91 ± 0.2", "unit": "µM"}, {"measurement": "IC50", "setting": "HCT-116 cells", "result": "7.97 ± 0.5", "unit": "µM"}, {"measurement": "IC50", "setting": "WI-38 cells", "result": "41.3 ± 2.5", "unit": "µM"}, {"measurement": "IC50", "setting": "VEGFR-2", "result": "31.6 ± 1.48", "unit": "µM"}, {"measurement": "%G0-G1", "setting": "MCF-7 cells [4]", "result": 46.68, "unit": "%"}, {"measurement": "%G2/M", "setting": "MCF-7 cells [4]", "result": 35.29, "unit": "%"}, {"measurement": "%S", "setting": "MCF-7 cells [4]", "result": 18.03, "unit": "%"}, {"measurement": "IC50", "setting": "HepG-2 cells", "result": "5.8 ± 0.4", "unit": "µM"}]}
